Key:
[1] = system: human bronchial epithelial (HBE) cells; assay: Airway surface liquid drug (ASL) clearance and metabolism by human airway epithelium; assay type: in vitro ADME; conditions: for % of Apical Mass as Metabolites (2 h) / % of Initial Apical Mass on Basolateral Side (2 h) / % on Basolateral Side as Metabolites (2 h): 25 μL of 25 μM apical
Method: Assay 3. Airway Surface Liquid Drug (ASL) Clearance and Metabolism by Human Airway Epithelium
(§1) The disappearance of Compound II-d from the apical surface and airway epithelial metabolism were assessed in human bronchial epithelial (HBE) cells (Table 3). In these experiments 25 μL of a 25 μM solution of ENaC blocker was added to the apical surface of HBE cells grown at an air/liquid interface, and the drug concentration in the apical and basolateral compartment was measured over 2 h by UPLC.
as §1, with “Therefore, the compounds of Formula (A) have a longer half-life on mucosal surfaces compared to these know compounds as evidenced by the data shown in Table 4. The” for “The”, “HBE and compared to Comparative Example 1” for “human bronchial epithelial (HBE) cells”, “4).” for “3).”

sheep = assay: Mucociliary clearance (MCC) studies in sheep; assay type: in vivo
Text: Assay 2. Mucociliary Clearance (MCC) Studies in Sheep

[2] = Plasma potassium in sheep of the MCC study (marker for hyperkalemia)
Method: The animal model that has been used most often to measure changes in MCC is the sheep model. The effect of compounds for enhancing mucociliary clearance (MCC) can be measured using an in vivo model described by Sabater et al., Journal of Applied Physiology, 1999, pp. 2191-2196, incorporated herein by reference. In these studies, adult sheep were restrained and nasally intubated with an endotracheal tube. Aerosolized test articles were administered over 10-15 minutes to sheep. Radiolabeled ^99mTc-sulfur colloid (TSC, 3.1 mg/mL; containing approximately 20 mCi) was then administered at a specified time four or eight hours after test article. The radiolabeled aerosol was administered through the endotracheal tube for about 5 minutes. The sheep were then extubated, and total radioactive counts in the lung were measured every 5 minutes for a 1-hour observation period. The rate of radiolabel clearance from the lung is representative of the MCC rate in the animal. The advantage of this system is that it closely simulates the human lung environment. The model also allows for the collection of simultaneous PK/PD information through plasma and urine sampling over the test period. There are also several techniques to measure the drug concentrations on the airway surface during the MCC measurements. These include the collection of exhaled breath condensates or a filter paper method to obtain ASL via bronchoscopy.
The ovine model described above was used to evaluate the in vivo effects (efficacy/durability) of aerosol-delivered Compound II-d on MCC. Treatments consisting of either 4 mL of Compound II-d, Comparative Example 1, (S)-3,5-diamino-6-chloro-N—(N-(4-(4-(2,3-diamino-3-oxopropoxy)phenyl)butyl)carbamimidoyl)pyrazine-2-carboxamide, vehicle (sterile distilled H2O), or test agent in combination with HS were tested. To determine if combining HS with Compound II-d MCC, HS was administered immediately following Compound II-d administration. […] Radioactive counts were measured in a central region in the right lung at 5 min intervals for one hour with a gamma camera. […]

Primary CBE cells = assay: Airway hydration and sodium channel block (in vitro model): surface liquid retention; assay type: cell-based, canine; conditions: for surface liquid retained on apical surface (% initial volume): 50 μl buffer, 10 μM
Method: Assay 4. Airway Hydration and Sodium Channel Block (In Vitro Model)
Primary CBE cells are plated onto collagen-coated, porous membranes maintained at an air-liquid interface to assess maintenance of surface liquid volume over time. At the start of the experiment, each 12 mm snapwell insert was removed from the plate containing air-liquid interface culture media, blotted dry, weighed, and 50 μL of vehicle (0.1% DMSO), or ENaC blocker (10 μM in 0.1% DMSO) applied to the apical surface and the mass was recorded. The inserts were immediately returned to a transwell plate (500 μL, Krebs Ringer Bicarbonate (KRB), pH 7.4 in lower chamber) and placed in a 37° C., 5% CO2 incubator. To reduce artifact due to an apical carbohydrate osmotic gradient upon water loss, glucose was not included in the apical buffer. Compound (1a) was tested and compared to vehicle, and the mass of ASL was monitored serially from 0-8 or 24 h. The mass of surface liquid was converted to volume in μL. Data are reported as % initial volume (100%=50 μL).
The duration of sodium transport inhibition was determined indirectly by measuring the buffer retained after a 50 μl volume of experimental buffer was added to the apical surface of CBE cells.

[3] = Table 4: HBE cells, 2 h, mean ± SD
[4] = Table 4: HBE cells, 2 h, parent only
[5] = Table 5: sheep MCC 4 h post-dose, 24 nmol/kg (300 μM)
[6] = Table 5: sheep MCC 4 h post-dose, 240 nmol/kg (3 mM)
[7] = HBE cells, 2 h incubation on the apical surface (37° C.), UPLC
[8] = Table 5: sheep MCC 4 h post-dose, 0.024 nmol/kg (300 nM)
[9] = sheep MCC 4 h post-dose, 0.024 nmol/kg (300 nM) aerosol, mean ± SD (n)
[10] = sheep MCC 4 h post-dose, 0.24 nmol/kg (3 μM) aerosol, mean ± SD (n)

N=C(NCCCCc1ccc(OC[C@H](N)C(N)=O)cc1)NC(=O)c1nc(Cl)c(N)nc1N [Comparative Example 1, (S)-3,5-diamino-6-chloro-N—(N-(4-(4-(2,3-diamino-3-oxopropoxy)phenyl)butyl)carbamimidoyl)pyrazine-2-carboxamide, reference compound]
elimination from the apical side ([1]; HBE cells, 2 h): most of Comparative Example 1 was eliminated from the apical side
metabolized to the less active carboxylic acid ([1]; HBE cells, 2 h, apical side): 83%
% of Apical Mass as Metabolites (2 h) [1, 3]: 83.0 ± 3.5%
% of Initial Apical Mass on Basolateral Side (2 h) [1, 3]: 8.3 ± 0.2^ %
% on Basolateral Side as Metabolites (2 h) [1, 3]: 94.7 ± 1.0%
% of Initial Apical Mass on Basolateral Side as Parent (2 h) [1, 4]: (1% Parent)
% of Initial Drug Mass on Apical Side as Parent (2 h) [1, 4]: (8% Parent)
ED50 (sheep; Ovis aries, sheep MCC 4 h post-dose, slope, AUC and Maximum Clearance, read-out: ED50 in the sheep MCC model): ~0.24 µmol/kg
AUC (% CI × h) (sheep; [5]): 6.9 ± 1.0 (3) % CI × h
Initial Slope (4.0-4.5 h) (sheep; [5]): 14.5 ± 1.3 (3)
AUC (% CI × h) (sheep; [6]): 14.1 ± 2.2 (6) % CI × h
Initial Slope (4.0-4.5 h) (sheep; [6]): 32.2 ± 7.3 (6)
MCC Highest Submaximal Dose (sheep; sheep): 3 mM
ED50 in the sheep MCC model (concentration of dosing solution) (sheep; sheep MCC 4 h post-dose): ~3000 µM
Top Dose in Sheep with no Elevation of Plasma Potassium [2]: 300 µM

CCCCCCN(CCCN[C@@H](CCc1ccc2cc(CCCCNC(=N)NC(=O)c3nc(Cl)c(N)nc3N)ccc2c1)C(N)=O)C[C@H](O)[C@@H](O)[C@H](O)[C@H](O)CO [XIV-d, 3,5-diamino-N—(N-(4-(6-((S)-4-amino-3-(3-(hexyl((2S,3R,4R,5R)-2,3,4,5,6-pentahydroxyhexyl)amino)propylamino)-4-oxobutyl)naphthalen-2-yl)butyl)carbamimidoyl)-6-chloropyrazine-2-carboxamide]
% of Apical Mass as Metabolites (2 h) [1, 3]: None
% of Initial Apical Mass on Basolateral Side (2 h) [1, 3]: 0.32 ± 0.6%
% on Basolateral Side as Metabolites (2 h) [1, 3]: None

N=C(N)NC(=O)c1nc(Cl)c(N)nc1N [Amiloride, amiloride, reference compound]
surface liquid retained on apical surface (% initial volume) (Primary CBE cells; 8 hours): 25±19.2%

N=C(NCCCCc1ccc(CC[C@H](NCCCN(C[C@H](O)[C@@H](O)[C@H](O)[C@H](O)CO)C[C@H](O)[C@@H](O)[C@H](O)[C@H](O)CO)C(N)=O)cc1)NC(=O)c1nc(Cl)c(N)nc1N [II-d, 3,5-diamino-N—(N-(4-(4-((S)-4-amino-3-(3-(bis((2S,3R,4R,5R)-2,3,4,5,6-pentahydroxyhexyl)amino)propylamino)-4-oxobutyl)phenyl)butyl)carbamimidoyl)-6-chloropyrazine-2-carboxamide]
compound detectable on the basolateral side [1, 7]: no Compound II-d was detectable on the basolateral side
metabolites on the apical or basolateral sides [1, 7]: no metabolites were detected
% of Apical Mass as Metabolites (2 h) ([1]; Table 3: HBE cells, 2 h): None
% on Basolateral Side as Metabolites (2 h) ([1]; Table 3: HBE cells, 2 h): None
% of Initial Apical Mass on Basolateral Side (2 h) ([1]; Table 3: HBE cells, 2 h, mean ± SD): 1.6 ± 0.15%
% of Apical Mass as Metabolites (2 h) [1, 3]: None
% of Initial Apical Mass on Basolateral Side (2 h) [1, 3]: 1.6 ± 0.15%
% on Basolateral Side as Metabolites (2 h) [1, 3]: None
AUC (% CI × h) (sheep; [8]): 11.5 ± 0.9 (4) % CI × h
Initial Slope (4.0-4.5 h) (sheep; [8]): 26.5 ± 1.4 (4)
MCC Highest Submaximal Dose (sheep; sheep): 0.0003 mM
potency in sheep MCC relative to Comparative Example 1 (fold lower dose / times more potent) (sheep; sheep MCC 4 hours post-dose): 10,000
AUC (% CI - h) (sheep; [9]): 11.5 ± 0.9 (4) % CI - h
Initial Slope (4.0-4.5 h) (sheep; [9]): 26.5 ± 1.4 (4)
AUC (% CI - h) (sheep; [10]): 19.8 ± 1.4 (4) % CI - h
Initial Slope (4.0-4.5 h) (sheep; [10]): 41.9 ± 3.7 (4)
ED50 dose (sheep; sheep MCC four hour post-dosing): approximately 0.024 nmo/kg
percentage mucus clearance over time (FIG. 6) (sheep; sheep MCC, clinically relevant dose range): maximal effect
MCC effect at the top of the dose response curve (sheep; sheep, 0.24 nmol/kg dose): maximum (100%) MCC effect
effect on MCC compared to vehicle control (sheep; sheep, four hour post-dosing, all doses tested (0.024, 0.24 and 2.4 nmol/kg)): enhanced MCC compared to vehicle control
Therapeutic Index, times greater renal safety than Comparative Example 1 [2]: 10,000-100,000
Top Dose in Sheep with no Elevation of Plasma Potassium [2]: 300 µM
surface liquid retained on apical surface (% initial volume) (Primary CBE cells; 8 hours): 112±11%
surface liquid retained on apical surface (% initial volume) (Primary CBE cells; 24 hours): 70.6±8.0%
loss of surface liquid relative to the 8-hour measure (Primary CBE cells; 24 hours): 16%

N=C(NCCCCc1ccc2cc(C[C@H](NCCCN(C[C@H](O)[C@@H](O)[C@H](O)[C@H](O)CO)C[C@H](O)[C@@H](O)[C@H](O)[C@H](O)CO)C(N)=O)ccc2c1)NC(=O)c1nc(Cl)c(N)nc1N [X-d, 3,5-diamino-N—(N-(4-(6-((S)-3-amino-2-(3-(bis((2S,3R,4R,5R)-2,3,4,5,6-pentahydroxyhexyl)amino)propylamino)-3-oxopropyl)naphthalen-2-yl)butyl)carbamimidoyl)-6-chloropyrazine-2-carboxamide]
% of Apical Mass as Metabolites (2 h) [1, 3]: None
% of Initial Apical Mass on Basolateral Side (2 h) [1, 3]: 5.0 ± 3.3%
% on Basolateral Side as Metabolites (2 h) [1, 3]: None

Source: US10246425B2, “3,5-diamino-6-chloro-N-(N-(4-phenylbutyl)carbamimidoyl) pyrazine-2-carboxamide compounds” (Parion Sciences, Inc., priority 2012, dated 2019)
